Assay results: patent US11147272B2, “Pyridone compounds and agricultural and horticultural fungicides comprising the same as active ingredients” (MITSUI CHEMICALS AGRO, INC., priority 2017, dated 2021)

How the values were obtained:
Magnaporthe grisea = test: whole plant or invertebrate; format: in vivo; details: Blast on rice; control value class
Alternaia brassicicola = test: Test Example C: Alternaria sooty spot on cabbage; format: in vivo; details: Alternaria sooty spot on cabbage; control value class
From the text: Seeds of a test plant (cabbage variety: Shikidori) were planted and cultivated until the cotyledons extended.
<Control Value> Control value=100{1−(n/3)}

Puccinia recondita = test: Test Example E: Brown rust on wheat; format: in vivo; details: Brown rust on wheat; control value class
Phytophthora infestans = test: whole plant or invertebrate; format: in vivo; details: Late blight on tomato; control value class
Botrytis cinerea = test: Test Example B: Gray mold on tomato; details: Gray mold on tomato; control value class
Plasmopara viticola = test: Test Example G: Downy mildew on vine; details: Downy mildew on vine; 250 ppm spray, 7 to 10 days after inoculation
[1] = system: Colletotrichum orbiculare; test: Test Example H: Anthracnose on cucumber; details: Anthracnose on cucumber; 250 ppm spray, 6 to 10 days after inoculation
[2] = system: Blumeria graminis f. sp. hordei; test: Test Example D: Powdery mildew on barley; details: Powdery mildew on barley; control value class

Compound | Test A control value (Magnaporthe grisea) | Test C control value (Alternaia brassicicola) | Test E control value (Puccinia recondita) | Test F control value (Phytophthora infestans) | Test B control value (Botrytis cinerea) | Test G control value (Plasmopara viticola) | Test H control value [1] | Test D control value [2]
CCn1c(-c2c(F)cc(F)cc2F)c(C(=O)C2CC2)cc(Cl)c1=O [compound 260] | H (more than 50% control value) | H (more than 50% control value) | H (more than 50% control value) | H (more than 50% control value) | H (more than 50% control value) | L (50% or less control value) | H (more than 50% control value) | H (more than 50% control value)
CCn1c(-c2c(F)cc(F)cc2F)c(C(C)(O)C2CC2)cc(Cl)c1=O (stereo not shown) [compound 261] | H (more than 50% control value) | H (more than 50% control value) | H (more than 50% control value) | L (50% or less control value) | H (more than 50% control value) | H (more than 50% control value) | H (more than 50% control value) | H (more than 50% control value)
CCn1c(-c2ccccc2Cl)c(CC(C)C)ccc1=O [compound 262] | L (50% or less control value) | H (more than 50% control value) | H (more than 50% control value) | L (50% or less control value) | H (more than 50% control value) | L (50% or less control value) | H (more than 50% control value) | H (more than 50% control value)
CCc1cc(F)ccc1-c1c(CC(C)C)cc(Cl)c(=O)n1CC [compound 263] | H (more than 50% control value) | H (more than 50% control value) | H (more than 50% control value) | L (50% or less control value) | H (more than 50% control value) | H (more than 50% control value) | H (more than 50% control value) | H (more than 50% control value)
CCn1c(-c2ccccc2Cl)c(CC(C)C)cc(Br)c1=O [compound 264] | L (50% or less control value) | H (more than 50% control value) | H (more than 50% control value) | L (50% or less control value) | H (more than 50% control value) | L (50% or less control value) | H (more than 50% control value) | H (more than 50% control value)
CCn1c(-c2ccccc2Cl)c(CC(C)C)cc(Cl)c1=O [compound 265] | H (more than 50% control value) | H (more than 50% control value) | H (more than 50% control value) | L (50% or less control value) | H (more than 50% control value) | H (more than 50% control value) | H (more than 50% control value) | H (more than 50% control value)
CCCCCCCc1ccc(=O)n(CC)c1-c1ccc(F)cc1Cl [compound 266] | L (50% or less control value) | L (50% or less control value) | H (more than 50% control value) | L (50% or less control value) | L (50% or less control value) | L (50% or less control value) | H (more than 50% control value) | H (more than 50% control value)
CCCCCCCCCC1=C(c2ccc(F)cc2Cl)N(CC)C(=O)CC1 [compound 267] | L (50% or less control value) | L (50% or less control value) | L (50% or less control value) | L (50% or less control value) | L (50% or less control value) | L (50% or less control value) | H (more than 50% control value) | H (more than 50% control value)
CCCCCCCc1cc(Cl)c(=O)n(CC)c1-c1ccc(F)cc1Cl [compound 268] | L (50% or less control value) | L (50% or less control value) | L (50% or less control value) | L (50% or less control value) | L (50% or less control value) | L (50% or less control value) | L (50% or less control value) | H (more than 50% control value)
CCCCCCCc1cc(Br)c(=O)n(CC)c1-c1ccc(F)cc1Cl [compound 269] | L (50% or less control value) | L (50% or less control value) | L (50% or less control value) | L (50% or less control value) | L (50% or less control value) | L (50% or less control value) | L (50% or less control value) | H (more than 50% control value)
CCCCCCCCc1ccc(=O)n(CC)c1-c1ccc(F)cc1Cl [compound 270] | L (50% or less control value) | L (50% or less control value) | L (50% or less control value) | L (50% or less control value) | L (50% or less control value) | L (50% or less control value) | L (50% or less control value) | H (more than 50% control value)
CCCCCCCCc1cc(Cl)c(=O)n(CC)c1-c1ccc(F)cc1Cl [compound 271] | L (50% or less control value) | L (50% or less control value) | L (50% or less control value) | L (50% or less control value) | L (50% or less control value) | L (50% or less control value) | L (50% or less control value) | H (more than 50% control value)
CCCCCCCCc1cc(Br)c(=O)n(CC)c1-c1ccc(F)cc1Cl [compound 272] | L (50% or less control value) | L (50% or less control value) | H (more than 50% control value) | L (50% or less control value) | L (50% or less control value) | L (50% or less control value) | L (50% or less control value) | L (50% or less control value)
CCCCCCCCCc1ccc(=O)n(CC)c1-c1ccc(F)cc1Cl [compound 273] | L (50% or less control value) | L (50% or less control value) | L (50% or less control value) | L (50% or less control value) | L (50% or less control value) | L (50% or less control value) | L (50% or less control value) | H (more than 50% control value)
CCCCCCCCCc1cc(Cl)c(=O)n(CC)c1-c1ccc(F)cc1Cl [compound 274] | L (50% or less control value) | L (50% or less control value) | L (50% or less control value) | L (50% or less control value) | L (50% or less control value) | L (50% or less control value) | L (50% or less control value) | H (more than 50% control value)
CCCCCCCCCc1cc(Br)c(=O)n(CC)c1-c1ccc(F)cc1Cl [compound 275] | L (50% or less control value) | L (50% or less control value) | L (50% or less control value) | L (50% or less control value) | L (50% or less control value) | L (50% or less control value) | L (50% or less control value) | H (more than 50% control value)
CCCCC(O)c1cc(Cl)c(=O)n(CC)c1-c1c(F)cc(F)cc1F (stereo not shown) [compound 276] | H (more than 50% control value) | H (more than 50% control value) | H (more than 50% control value) | L (50% or less control value) | H (more than 50% control value) | H (more than 50% control value) | L (50% or less control value) | H (more than 50% control value)
